Patent publication US7060721B1, “Imidazole compounds and medicinal use thereof” (Fujisawa Pharmaceutical Co., Ltd., priority 1998, dated 2006)

Row | Structure (SMILES) | melting point [°C]
1 | CCCCCS(=O)(=O)NC(=O)/C=C/c1c(Cl)nc(C)n1Cc1ccc(NC(=O)OC(C)(C)C)cc1Cl [Example 49, (E)-3-(1-(4-(tert-butoxycarbonylamino)-2-chlorobenzyl)-4-chloro-2-methylimidazol-5-yl)-N-(1-pentanesulfonyl)-2-propenamide] | 202 to 204
2 | Cc1nc(Cl)c(/C=C/C(=O)NS(=O)(=O)/C=C/c2ccccc2)n1Cc1ccc(-c2cccs2)cc1Cl [Example 4, (2E)-3-(4-chloro-1-(2-chloro-4-(2-thienyl)benzyl)-2-methylimidazol-5-yl)-N-(((E)-2-phenylethenyl)sulfonyl)-2-propenamide] | 246 to 248
3 | CCCCCOc1ccc(Cn2c(C)nc(Cl)c2C(=O)NS(=O)(=O)/C=C/c2ccccc2)c(Cl)c1 [Example 72, 4-chloro-1-(2-chloro-4-(1-pentyloxy)benzyl)-2-methyl-5-((E)-2-phenylethenesulfonyl-carbamoyl)-1H-imidazole] | 107 to 110
4 | CCc1nc(Cl)c(/C=C/C(=O)NS(=O)(=O)/C=C/c2ccccc2)n1Cc1ccc(C#Cc2ccccc2)cc1Cl [Example 54, (E)-3-(4-chloro-1-(2-chloro-4-(phenylethynyl)benzyl)-2-ethylimidazol-5-yl)-N-((E)-2-phenylethenesulfonyl)-2-propenamide] | 233 to 234
5 | Cc1nc(Cl)c(/C=C/C(=O)NS(=O)(=O)/C=C/c2ccccc2)n1Cc1ccc(-c2ccco2)cc1Cl [Example 2, (2E)-3-(4-chloro-1-(2-chloro-4-(2-furyl)benzyl)-2-methylimidazol-5-yl)-N-(((E)-2-phenylethenyl)sulfonyl)-2-propenamide] | 227 to 228
6 | CCCCCOc1ccc(Cn2c(/C=C(\Cc3cccnc3)C(=O)NS(=O)(=O)/C=C/c3ccccc3)cnc2C)c(Cl)c1 [Example 69, (E)-3-(1-(2-chloro-4-(1-pentyloxy)benzyl)-2-methylimidazol-5-yl)-2-((3-pyridyl)methyl)-N-((E)-2-phenylethenesulfonyl)-2-propenamide] | 156 to 158
7 | Cc1nc(Cl)c(/C=C/C(=O)NS(=O)(=O)/C=C/c2ccccc2)n1Cc1ccc(-c2ccccc2)cc1Cl [Example 12, (E)-3-(4-chloro-1-(2-chloro-4-phenylbenzyl)-2-methylimidazol-5-yl)-N-(((E)-2-phenylethenyl)sulfonyl)-2-propenamide] | 240 to 241
8 | CCCCS(=O)(=O)NC(=O)/C=C/c1c(Cl)nc(CC)n1Cc1ccc(/C=C/c2ccccc2)cc1Cl [Example 61, (E)-N-(1-butanesulfonyl)-3-(4-chloro-1-(2-chloro-4-((E)-2-phenylethenyl)benzyl)-2-ethylimidazol-5-yl)-2-propenamide] | 210 to 213
9 | CCCCCOc1ccc(Cn2c(/C=C(\Cc3ccccc3)C(=O)NS(=O)(=O)/C=C/c3ccccc3)cnc2C)c(Cl)c1 [Example 67, (E)-2-benzyl-3-(1-(2-chloro-4-(1-pentyloxy)benzyl)-2-methylimidazol-5-yl)-N-((E)-2-phenylethenesulfonyl)-2-propenamide] | 171 to 172
10 | CCCCCOc1ccc(Cn2c(C)nc(Cl)c2/C=C(\C)C(=O)NS(=O)(=O)/C=C/c2ccccc2)c(Cl)c1 [Example 71, (E)-3-(4-chloro-1-(2-chloro-4-(1-pentyloxy)benzyl)-2-methylimidazol-5-yl)-2-methyl-N-((E)-2-phenylethenesulfonyl)-2-propenamide] | 156 to 157
11 | Cc1nc(Cl)c(/C=C/C(=O)NS(=O)(=O)/C=C/c2ccccc2)n1Cc1ccc(/C=C/c2ccccc2)cc1Cl [Example 35, (E)-3-(4-chloro-1-(2-chloro-4-((E)-2-phenylethenyl)benzyl)-2-methylimidazol-5-yl)-N-(((E)-2-phenylethenyl)sulfonyl)-2-propenamide] | 230 to 232
